In one data set the test system is Panc-1 cells. As to the kind of experiment: Cell proliferation (culture confluency, IncuCyte) in 2D culture, Panc-1. Particulars: 100 µM, confluence by live cell imaging. The format is cell-based. How it is done:
(§1) Cell lines Panc-1 (ACC 783) and Colo-357 (CVCL_0221) were obtained through the validated collection of the pHioniC consortium (MSC-ITN 813834). Both cell lines were grown in RPMI1640, supplemented with 1 mM sodium pyruvate and 1% Glutamax (all Gibco Thermo-Fisher, Waltham, MA USA) 10%FBS (BioChrom, Berlin, Germany), at 5% CO2 and 37 °C in a humidified atmosphere.
(§2) For cell proliferation assays, cells were seeded at a density of 10,000 cells/well in 96-well flat bottom culture plates (Corning, Kaiseslautern, Germany) and proliferation was measured through culture confluency using an IncuCyte device (Sartorius, Göttingen, Germany). Every hour, two phase contrast images per well were acquired, and a confluency mask was generated by training the analysis algorithm using representative images. Every image was then analyzed using the obtained parameters to determine culture confluency. Treatments were then added when cells reached a confluency of ~30% (Panc-1) or ~55% (Colo-357), and proliferation was determined for the following 60 h. Proliferation is reported as confluency increase with respect to the start of the treatment.

A further data set deals with KV1.3 (Homo sapiens, UniProt P22001). Description: KV1.3 inhibition, manual whole-cell patch-clamp on Ltk^− cells. The format is cell-based. Also noted: expressed in transfected cells; host or cells: Ltk- cells (mouse fibroblasts), transient transfection with lipofectamine 2000.
KV1.3, sequence (P22001 whole entry): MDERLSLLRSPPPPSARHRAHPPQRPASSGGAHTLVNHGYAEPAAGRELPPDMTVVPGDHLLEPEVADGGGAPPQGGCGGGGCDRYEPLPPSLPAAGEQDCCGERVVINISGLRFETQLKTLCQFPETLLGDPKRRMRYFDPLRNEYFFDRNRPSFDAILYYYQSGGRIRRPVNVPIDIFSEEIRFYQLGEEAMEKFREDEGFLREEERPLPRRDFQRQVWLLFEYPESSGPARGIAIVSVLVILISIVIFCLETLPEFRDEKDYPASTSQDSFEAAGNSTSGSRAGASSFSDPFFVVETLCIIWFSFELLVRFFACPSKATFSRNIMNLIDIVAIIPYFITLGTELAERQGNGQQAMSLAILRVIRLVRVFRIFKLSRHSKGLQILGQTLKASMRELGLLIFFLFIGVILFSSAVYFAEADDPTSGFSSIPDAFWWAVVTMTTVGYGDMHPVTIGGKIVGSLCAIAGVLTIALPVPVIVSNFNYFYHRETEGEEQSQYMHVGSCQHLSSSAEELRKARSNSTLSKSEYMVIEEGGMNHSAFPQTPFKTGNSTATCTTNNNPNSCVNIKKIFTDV
The test system of a further data set is Colo-357 cells. As to the kind of experiment: Cell proliferation (culture confluency, IncuCyte) in 2D culture, Colo-357. The format is cell-based. Particulars: 100 µM, confluence by live cell imaging. How it is done:
as §1, §2

The next data set has as its target KV1.6 (Homo sapiens, UniProt P17658). Description: Selectivity, HiClamp Xenopus laevis heterologous expression system, KV1.6. The format is cell-based. Particulars: for IC50: HiClamp, oocytes, NA = no significant inhibition, no IC50 determined; for Effect on KV1.6 channel: at a concentration of the compound's IC50 value for KV1.3. How it is done: (§3) Ion channels (Kv1.x, Kv2.1, Kv4.2, Kv10.1) were expressed in Xenopus laevis oocytes by linearization of the plasmids and subsequent in vitro transcription using a commercial T7 or SP6 mMESSAGE mMACHINE transcription kit (Ambion, Carlsbad, California, USA). Defolliculated Xenopus oocytes were then injected with 20–50 nL of the cRNA at a concentration of 1 ng/nL using a micro-injector (Drummond Scientific1, Broomall, PA, USA). The oocytes were incubated in a solution containing (in mM): NaCl, 96; KCl, 2; CaCl2, 1.8; MgCl2, 2 and HEPES, 5 (pH 7.5), supplemented with 50 mg/L gentamycin sulfate and 90 mg/L theophylline. After ex vivo translation, the ion channels were correctly inserted in the cell membrane of the oocytes.
(§4) Two-electrode voltage-clamp recordings were performed at room temperature (18–22 °C) using a Geneclamp 500 amplifier (Molecular Devices, San Jose, CA, USA) and pClamp data acquisition (Axon Instruments, Union City, CA, USA) and using an integrated digital TEVC amplifier controlled by HiClamp, an automated Voltage-Clamp Screening System (Multi Channel Systems MCS GmbH, Reutlingen, Germany). Whole-cell currents from oocytes were recorded 1–4 days after injection. The bath solution composition was ND96 (in mM): NaCl, 96; KCl, 2; CaCl2, 1.8; MgCl2, 2 and HEPES, 5 (pH 7.5). Voltage and current electrodes were filled with a 3 M solution of KCl in H2O. Resistances of both electrodes were kept between 0.5 and 1.5 MΩ. The elicited Kv1.x, Kv2.1, Kv4.2 and Kv10.1 currents were filtered at 0.5 kHz and sampled at 2 kHz using a four-pole low-pass Bessel filter. Leak subtraction was performed using a P/4 protocol.
(§5) For the electrophysiological analysis of the compounds, a number of protocols were applied from a holding potential of −90 mV. Currents for Kv1.x, Kv2.1, Kv4.2 and Kv10.1 were evoked by 1 s depolarizing pulses either to 0 mV or to a range of voltage steps between −80 mV and +40 mV. For the analysis of the data, only the inhibition at the 0 mV step was used. The concentration dependency of all compounds was assessed by measuring the current inhibition in the presence of increasing compound concentrations. […] From this stock solution, adequate dilutions with a maximum of 0.5% DMSO were made for testing.
(§6) All electrophysiological data (Figure S1) are presented as means ± S.E.M of n ≥ three independent experiments unless otherwise indicated. All data were analyzed using pClamp Clampfit 10.4 (Molecular Devices, Downingtown, PA, USA), OriginPro 9 (Originlab, Northampton, MA, USA), GraphPad Prism 8 software (GraphPad Software, Inc., San Diego, CA, USA) and DataMining (Multi Channel Systems MCS GmbH, Reutlingen, Germany). The Dunnett test and one-way ANOVA were performed to calculate the significance of the induced inhibition compared to the control.

In the next data set the target is KV1.1 (Rattus norvegicus, UniProt P10499). As to the kind of experiment: Selectivity, HiClamp Xenopus laevis heterologous expression system, KV1.1. It is filed as cell-based. The conditions noted are these: at a concentration of the compound's IC50 value for KV1.3. How it is done: as §3, §4, §5, §6
KV1.1, sequence (P10499 whole entry): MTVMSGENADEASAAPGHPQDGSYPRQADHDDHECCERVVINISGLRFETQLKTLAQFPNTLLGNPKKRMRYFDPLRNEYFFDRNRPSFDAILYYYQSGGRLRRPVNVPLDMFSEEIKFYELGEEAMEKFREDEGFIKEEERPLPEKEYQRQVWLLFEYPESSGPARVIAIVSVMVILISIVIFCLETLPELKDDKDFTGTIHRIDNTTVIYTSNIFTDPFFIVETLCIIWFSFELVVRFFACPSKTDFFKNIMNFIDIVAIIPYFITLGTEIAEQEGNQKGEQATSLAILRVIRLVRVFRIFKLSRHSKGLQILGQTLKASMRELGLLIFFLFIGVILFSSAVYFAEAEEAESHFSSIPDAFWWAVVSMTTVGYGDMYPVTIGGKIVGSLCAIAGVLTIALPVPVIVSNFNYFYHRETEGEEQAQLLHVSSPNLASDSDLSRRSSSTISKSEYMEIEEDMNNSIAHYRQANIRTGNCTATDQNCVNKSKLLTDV
Another data set relates to Panc-1 tumor spheroids. Description: Apoptosis (caspase 3/7 activity) in Panc-1 tumor spheroids. The format is cell-based. The conditions noted are these: with 8.9 µM cycloheximide. On the procedure:
as §1
Spheroids were cultured in round bottom ultra-low attachment 96-well plates (Corning). The optimal seeding densities were empirically determined (8000 cells/well for Colo-357 or 10,000 cells/well for Panc-1 spheroids. The cells were suspended in 2% Matrigel (Corning), centrifuged at 1000× g for 10 min and the spheroids were allowed to form in the incubator. Once the spheroids were formed, the treatments indicated together with 8.9 µM cycloheximide (as apoptosis sensitizer) were added and apoptosis was determined by live imaging in the Incucyte system in real time for approximately 60 h using Caspase-3/7 green reagent (Sartorius) as a reporter of apoptosis, which crosses the cell membrane and is cleaved by the activated Caspase-3/7, resulting in the fluorescent staining of nuclear DNA. Apoptosis on Panc-1 tumor spheroids is presented as integrated green fluorescence in the whole spheroid.

Data set [1] in a line: Turbidimetric solubility assay. It is filed as physicochemical. Particulars: for solubility: pH 7.4, aqueous buffer, kinetic from dmso stock, phosphate-buffered saline, final 1% DMSO, read-out: Concentration at which compound was soluble (turbidimetric solubility test). How it is done:
For the phosphate-buffered saline, we dissolved 2.38 g of disodium hydrogen phosphate dodecahydrate, 0.19 g of potassium dihydrogen phosphate, and 8.0 g of sodium chloride in water and diluted it to 1000 mL with the same solvent. Then we adjusted the pH to 7.4. The stock DMSO solutions of the compounds were prepared at concentrations of 50 mM, 20 mM, 10 mM, and 1 mM. The final solutions (500 µM, 200 µM, 100 µM, and 10 µM) were prepared by adding 2 µL of the stock DMSO solution to 198 µL of phosphate-buffered saline. The absorbance (area scan) was measured at 620 nm for sample volume of 200 µL and the appearance of the solutions was checked by visual inspection.

[2] abbreviates: 10 µM in PBS with 1 % final DMSO.
Setting [3] is: 100 µM in PBS with 1 % final DMSO.
Setting [4] is: 200 µM in PBS with 1 % final DMSO.
Setting [5] is: 500 µM in PBS with 1 % final DMSO.

Consider 4 compounds from paper PMC9179341, “Design of New Potent and Selective Thiophene-Based KV1.3 Inhibitors and Their Potential for Anticancer Activity” (Cancers, 2022).

“Also recorded” adds a separate entry of the source. A value given as a limit tells only on which side of the number the result lay.

A word on the IC50: it is the concentration needed to halve the response being measured. A high value points to weaker potency.

KV1.6, sequence (P17658 whole entry): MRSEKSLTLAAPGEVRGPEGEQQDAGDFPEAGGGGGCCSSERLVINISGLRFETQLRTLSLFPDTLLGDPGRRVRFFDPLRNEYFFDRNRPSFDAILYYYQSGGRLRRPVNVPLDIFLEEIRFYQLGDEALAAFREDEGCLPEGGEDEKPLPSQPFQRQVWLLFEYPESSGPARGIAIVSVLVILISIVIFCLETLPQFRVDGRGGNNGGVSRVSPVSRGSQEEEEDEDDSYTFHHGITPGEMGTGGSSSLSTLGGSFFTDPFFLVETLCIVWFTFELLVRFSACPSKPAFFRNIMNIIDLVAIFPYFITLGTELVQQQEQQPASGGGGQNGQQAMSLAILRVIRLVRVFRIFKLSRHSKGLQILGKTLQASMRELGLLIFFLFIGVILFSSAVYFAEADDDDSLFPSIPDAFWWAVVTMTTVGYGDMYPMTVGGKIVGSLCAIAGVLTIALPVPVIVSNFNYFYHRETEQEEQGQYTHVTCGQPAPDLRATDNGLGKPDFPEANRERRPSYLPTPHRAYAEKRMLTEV
Description for KV1.3: Ltk^− cells were cultured in Dulbecco’s Modified Eagle Medium (DMEM) supplemented with 10% horse serum and 1% penicillin/streptomycin (Invitrogen, Waltham, CA, USA). […] The coding sequence of hKv1.3 was cloned in a pEGFP plasmid without removing the stop codon (i.e., eGFP was not transcribed). Therefore, during transfection 0.5 µg of pEGFP plasmid (expressing eGFP) was added as transfection marker Cells were collected 24h post-transfection using a 0.05% trypsin-EDTA solution (Thermo Fisher Scientific, Waltham, MA, USA) and transferred to the recording chamber mounted on the stage of an inverted Nikon Eclipse TE2000 fluorescence microscope (Nikon, Minato, Japan). The compounds were dissolved in 100% DMSO and stock solutions were stored at -20°C. Before use, the stock concentrations were diluted with extracellular recording solution to appropriate concentrations, making sure that the final DMSO concentration never exceeded 0.1%. A 0.1% DMSO solution was prepared as a vehicle control.
All recordings were conducted at room temperature (20–23 °C) in the whole-cell configuration using an axopatch 200b amplifier (Molecular Devices, San Jose, CA, USA). Applied voltage pulse protocols and current recordings were controlled with pClamp 10 software and digitized using an axon digidata 1440 (Molecular Devices, San Jose, CA, USA). The cells in the recording chamber were continuously superfused with an extracellular solution (containing in mM): NaCl 145, KCl 4, MgCl2 1, CaCl2 1.8, HEPES 10, and glucose 10 (adjusted to pH 7.35 with NaOH). Patch pipettes were pulled from borosilicate glass (World Precision Instruments, Sarasota, FL, USA), using a P-2000 puller (Sutter Instruments, Novato, CA, USA), with resistances ranging from 1.5–2 MΩ. These pipettes were backfilled with an intracellular solution (containing in mM): KCl 110, K2ATP 5, MgCl2 2, HEPES 10, and K4BAPTA 5 (adjusted to pH 7.2 with KOH). Junction potentials were zeroed with the filled pipette in the extracellular solution of the recording chamber. A series resistance compensation of 80% was employed. Recordings were passed through a 5 kHz low-pass filter while being sampled at 10 kHz. A single step from holding potential (−80 mV) to +40 mV was utilized to monitor KV1.3 current inhibition. The pulse duration was 200 ms with an interpulse interval of 15 s. […]
The data was analyzed with pClamp 10 software (Molecular Devices, San Jose, CA, USA), and the dose-response curves shown were made using Sigmaplot 11.0 (Systat software, Palo Alto, CA USA). […] Results are expressed as mean ± SEM, with n being the number of cells analyzed. EC50 values were determined by fitting the Hill equation to the dose-response curve.

In the case of `COc1ccccc1C(=O)NCC1(c2cccs2)CCOC1` (stereo not drawn) [Compound 14], the “Growth (proliferation) inhibition of Panc-1 cells” value (“Growth (proliferation) inhibition” for short) in the data set with Panc-1 cells was “significantly inhibited; also recorded: strong inhibition”. The concentration for half-maximal inhibition (IC50) on KV1.3 is 1330 ± 200 nM; against KV1.6 it was 430 ± 20 nM. Further, in the data set with Colo-357 cells, the “Growth of Colo-357 cells” value is recorded as “not significantly affected; also recorded: unaffected”. Also, the “Effect on KV1.6 channel” value at KV1.6 is listed as “significant effects”. For the same compound, the “Effect on KV1.1 channel” value on KV1.1 is on record as “significant effects”. In addition, the “Induction of apoptosis in Panc-1 spheroids” value (“Induction of apoptosis” for short) in the data set with Panc-1 tumor spheroids was “did not induce detectable levels of apoptosis”.

Consider `COc1ccc(F)cc1C(=O)NCC1(c2ccccc2)CCOCC1` [Compound 37], for which the “Growth (proliferation) inhibition” value with Panc-1 cells is recorded as “significantly inhibited; also recorded: strong inhibition”. The concentration for half-maximal inhibition (IC50) at KV1.3 came to 1350 ± 40 nM; at KV1.6, 4330 ± 1210 nM. Also, in the data set on Colo-357 cells, the “Growth of Colo-357 cells” value is reported as “not significantly affected; also recorded: unaffected”. At KV1.6, the “Effect on KV1.6 channel” value was “significantly inhibited”. In addition, the “Effect on KV1.1 channel” value on KV1.1 is reported as “significantly inhibited”. Besides, the “absorbance at 620 nm” value is recorded as 0 in data set [1] (setting [2]), 0,003 in data set [1] (setting [3]), 0,005 in data set [1] (setting [4]) and 0,077 in data set [1] (setting [5]). In data set [1], the solubility was at least 200 µM. In the data set on Panc-1 tumor spheroids, the “Induction of apoptosis” value was “did not induce detectable levels of apoptosis”.

As to `COc1ccccc1C(=O)NCC1(c2cccs2)CCOCC1` [Compound 43], the “Growth (proliferation) inhibition” value in the data set with Panc-1 cells was “significantly inhibited; also recorded: strong inhibition”. Besides, the results for the IC50 against KV1.3 and on KV1.6 were 1020 ± 70 nM and 830 ± 10 nM, respectively. For the same compound, the “Growth of Colo-357 cells” value in the data set with Colo-357 cells was “not significantly affected; also recorded: unaffected”. Moreover, the “Effect on KV1.6 channel” value on KV1.6 is listed as “significant effects”. For the same compound, the “Effect on KV1.1 channel” value on KV1.1 is given as “significant effects”. In addition, the “absorbance at 620 nm” value in data set [1] (setting [2]) is 0,01; in data set [1] (setting [3]), 0,002; in data set [1] (setting [4]), 0,003; in data set [1] (setting [5]) it was 0,011. For the same compound, the solubility in data set [1] was at least 500 µM. The “Induction of apoptosis” value with Panc-1 tumor spheroids is listed as “did not induce detectable levels of apoptosis”.

For `COc1ccccc1C(=O)NCC1(c2ccsc2)CCOCC1` [Compound 44], the “Growth (proliferation) inhibition” value with Panc-1 cells was “significantly inhibited; also recorded: moderate growth inhibition”. For the same compound, at KV1.3, half-maximal inhibition (IC50) was put at 950 ± 240 nM. In addition, the “Growth of Colo-357 cells” value in the data set on Colo-357 cells is “not significantly affected; also recorded: unaffected”. Also, at KV1.6, the “Effect on KV1.6 channel” value is listed as “no significant effects”. Moreover, the “Effect on KV1.1 channel” value at KV1.1 is reported as “no significant effects”. Besides, the “absorbance at 620 nm” value in data set [1] (setting [2]) was 0; in data set [1] (setting [3]), 0,003; in data set [1] (setting [4]) it was 0,003; in data set [1] (setting [5]) it was 0,014. The solubility in data set [1] was at least 500 µM. Besides, the “Induction of apoptosis” value in the data set on Panc-1 tumor spheroids is “did not induce detectable levels of apoptosis”.
